In patent publication US20160280651A1, “COMPOUNDS THAT INDUCE ABA RESPONSES” (THE REGENTS OF THE UNIVERSITY OF CALIFORNIA, priority 2013, published 2016):

What was measured:
[1] = molecular target: T1, HAB1 with PYR/PYL receptors (Arabidopsis thaliana, UniProt Q9FLB1); experiment: Receptor-mediated PP2C inhibition assay with HAB1, Example 1; type: biochemical; conditions: PYL5
T1 construct: 6xHis (N); made in house; host or cells: E. coli BL21[DE3]pLysS
T1 sequence (Q9FLB1 1-203): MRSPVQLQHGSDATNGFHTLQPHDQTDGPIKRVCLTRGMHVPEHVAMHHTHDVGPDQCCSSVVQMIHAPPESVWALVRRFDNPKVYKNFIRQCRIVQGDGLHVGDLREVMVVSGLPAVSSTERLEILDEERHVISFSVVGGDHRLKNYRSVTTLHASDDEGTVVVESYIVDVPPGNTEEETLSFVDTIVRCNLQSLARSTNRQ
T1 sequence (Q9CAJ0 1-511 partner): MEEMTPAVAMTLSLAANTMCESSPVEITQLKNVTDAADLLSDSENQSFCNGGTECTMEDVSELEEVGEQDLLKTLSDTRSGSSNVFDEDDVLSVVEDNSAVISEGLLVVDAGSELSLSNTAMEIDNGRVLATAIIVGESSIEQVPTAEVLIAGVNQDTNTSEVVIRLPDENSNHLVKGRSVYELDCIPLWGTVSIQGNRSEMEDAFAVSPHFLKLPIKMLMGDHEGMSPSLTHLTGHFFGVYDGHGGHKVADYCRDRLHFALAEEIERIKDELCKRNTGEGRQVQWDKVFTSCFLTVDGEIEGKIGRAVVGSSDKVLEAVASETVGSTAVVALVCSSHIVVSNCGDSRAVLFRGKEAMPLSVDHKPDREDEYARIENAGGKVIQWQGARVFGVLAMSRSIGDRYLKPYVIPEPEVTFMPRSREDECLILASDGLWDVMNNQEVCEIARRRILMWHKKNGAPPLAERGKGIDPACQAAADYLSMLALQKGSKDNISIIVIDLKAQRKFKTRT
Procedure: (§1) FIG. 2A-FIG. 2C. Novel ABA agonists inhibit PPC2 activity through multiple PYR/PYL. (A) Chemical structure of naturally occurring (+)-ABA and selected ABA agonists. (B) and (C) HAB1, ABU, and ABI2 PP2C enzyme activity based ABA-agonist assays for various receptors in the presence or absence of 10 μM each test chemical.
(§2) FIG. 3A-FIG. 3B. (A) Receptor-mediated dose-dependent inhibition of PP2C enzyme activity by ABA agonists and analogs. (B) Observed compound IC50 values in enzymatic HAB1 PP2C-based ABA-agonist assays.
(§3) FIG. 4A-FIG. 4B. Quinabactin activates multiple ABA receptors. (A) Chemical structures of ABA, pyrabactin and quinabactin. (B) Chemical-dependent inhibition of HAB1 by ABA receptors. IC50 values (nM) were determined as described in the methods using 50 nM HAB1, 50 nM and multiple concentrations of compounds; full dose response curves are provided as in FIG. 3. (nd) correspond to receptors that were not produced as active proteins. The phylogenetic tree is a Neighbor-Joining tree made using the JTT distance matrix in MEGA5 (Tamura K, et al. (2011) MEGA5: Molecular Evolutionary Genetics Analysis Using Maximum Likelihood, Evolutionary Distance, and Maximum Parsimony Methods. Molecular Biology and Evolution 28(10):2731-2739).
(§4) HAB1 and PYL proteins were expressed and purified as described previously (Park S Y, et al. (2009) Abscisic Acid Inhibits Type 2C Protein Phosphatases via the PYR/PYL Family of START Proteins. Science 324(5930):1068-1071), with minor modifications. To obtain GST-HAB1, -ABI1 and -ABI2 fusion proteins, the HAB1 cDNA was cloned into pGex-2T whereas ABI1 and ABI2 cDNAs were cloned into the vector pGex-4T-1. Expression was conducted in BL21[DE3]pLysS host cells. Transformed cells were pre-cultured overnight, transferred to LB medium and cultured at 30° C. to culture A600 of ˜0.5. The culture was then cooled on ice and MnCl2 added to 4 mM and IPTG added to 0.3 mM. After 16 hours incubation at 15° C., cells were harvested and recombinant proteins were purified on glutathione agarose as described previously (Park S Y, et al. (2009). To obtain 6×His-PYL receptor fusion proteins, receptor cDNAs for all 13 ABA receptors were cloned into the vector pET28 and expressed and purified as described previously (Mosquna A, et al. (2011) Potent and selective activation of abscisic acid receptors in vivo by mutational stabilization of their agonist-bound conformation. PNAS 108(51):20838-20843); this yielded soluble and functional protein (assessed using receptor-mediated PP2C inhibition assays) for all receptors except PYL7, PYL11 and PYL12. These three receptors were therefore alternatively expressed as maltose binding (MBP) fusion proteins using the vector pMAL-c; expression of these constructs was carried out in BL21 [DE3]pLysS host strain with the same induction conditions used for GST-HAB1. Recombinant MBP-PYL fusion proteins were purified from sonicated and cleared lysate using amylose resin (New England Biolab, Inc.) using the manufacturers purification instructions. This effort yielded an active MBP-PYL11 fusion protein, but failed for PYL7 and PYL12.
(§5) PP2C activity assays using recombinant receptors and PP2Cs were carried out as follows: Purified proteins were pre-incubated in 80 μl assay buffer containing 10 mM MnCl2, 3 μg bovine serum albumin and 0.1% 2-mercaptoethanol with ABA or ABA agonist for 30 minutes at 22° C. Reactions were started by adding 20 μL of a reaction solution containing 156 mM Tris-OAc, pH 7.9, 330 mM KOAc and 5 mM 4-methylumbelliferyl phosphate after which fluorescence measurements were immediately collected using an excitation filter 355 nm and an emission filter 460 nm on a Wallac plate reader. Reactions contained 50 nM PP2C and 100 nM PYR/PYL proteins, respectively.

[2] = system: HAB1 with PYR/PYL receptors; experiment: as above; type: biochemical, Arabidopsis
Procedure: as §1, §2, §3, §4, §5

ABA-responsive genes = experiment: ABA-responsive gene expression in moss; type: in vivo, Physcomitrella patens; conditions: 200 μM for 3 h
Procedure: FIG. 17A-FIG. 17D. The effect of ABA and its agonists in Physcomitrella patens and Chlamydomonas. Protonemal growth images (A) and quantitative analysis (B) of the effects of ABA and agonists on Phsycomitrella patens. Protonema were grown on 200 μM of specific test chemical for 10 days. […] Pyrabactin bleached protonema. (C) The expression of ABA-responsive genes of Physcomitrella patens. Protonema were treated with 200 μM chemical solutions for 3 h. (D) Colony growth of Chlamydomonas on the chemical with salinity stress and osmotic stress. There was no effect of ABA and LC66C6 on the Chlamydomonas growth with and without stresses.

Row | SMILES | PP2C inhibition at saturation [1] | IC50 ([1]; read-out: IC50 of PYL5 activation) | PP2C inhibition of HAB1 ([2]; 10 μM, receptors PYR1, PYL1, PYL2, PYL3 and PYL5) | IC50 values of receptor activation ([2]; PYR1, PYLs 1-3 and PYL5) | Agonist strength compared with ABA ([2]; PYR1 or PYL1) | Maximal PP2C inhibition compared with pyrabactin ([2]; all receptors tested) | Expression of ABA-responsive genes in moss (ABA-responsive genes)
1 | O=S(=O)(NCc1ccccn1)c1ccc(Br)c2ccccc12 [pyrabactin, reference compound] | ~40% | 900 nM | – | – | – | – | –
2 | CCCN1C(=O)CCc2cc(NS(=O)(=O)Cc3ccc(C)cc3)ccc21 [LC66C6] | – | – | > 70% | submicromolar | stronger PYR1 or PYL1 agonist than ABA | higher than that observed with pyrabactin with all receptors tested | can induce the expression of ABA-responsive genes in moss
